Data from patent publication US8007996B2, “Methods to identify protein arginine deiminase 4 inhibitors” (University of South Carolina, priority 2007, dated 2011).
“Also recorded” adds a separate entry of the source. Read-outs that look alike come from different tables or passages of the source.

Assays:
PAD4 [1] = molecular target: T1, PAD4 (Homo sapiens, UniProt Q9UM07); test: Standard PAD4 assay (citrulline formation from BAEE), IC50 studies; assay type: biochemical
T1 construct: made in house
Description: Reactions were quenched by flash freezing in liquid N2. The amount of Cit produced was then quantified according to methods known in the art. […] Inhibition Studies.

PAD4 [2] = molecular target: T1, PAD4; test: ABPP-based inhibitor screen: competition with RFA for labelling of PAD4, gel fluorescence; assay type: binding; details: compound 2.5 mM, RFA 10 μM, PAD4 2 μM, 30 min at 37° C.
Experimental: Very generally, potential inhibitor compounds are incubated individually with PAD4 in the presence of RFA for 30 min at 37° C.; at which point the reactions are quenched with SDS-PAGE loading dye and the mixtures are run on an SDS-PAGE gel. The amount of fluorescent PAD4 can then be quantified using a molecular imaging system. PAD4 inhibitors are readily identified by a decrease in fluorescence intensity.
RFA (10 μM final) and a particular compound from the library (2.5 mM final) were pre-incubated in Screening Buffer (500 μM TCEP, 10 mM CaCl2, 100 mM HEPES 7.6, 50 mM NaCl) for 10 min at 37° C. PAD4 (2 μM final) was then added to this mixture and incubated for 30 min at 37° C. The reaction was quenched with 6×SDS-PAGE Dye, incubated at 95° C. for 10 min, and then loaded onto a 12% SDS-PAGE gel. After electrophoresis, the gel was placed in destaining buffer (10% glacial acetic acid, 45% methanol, 45% ddH2O) until the fluorescence was measured using a fluorescence based molecular imaging station (Kodak Image Station 2000MM; excitation at 535 nm, emission at 600 nm). The protein gel was then stained and destained to ensure equal protein loading. A sample without a potential inhibitor was used as a control.

PAD4 [3] = molecular target: T1, PAD4; test: Inhibition studies: kinetic analysis of PAD4 activity versus BAEE concentration; assay type: biochemical; details: for kinetic mechanism of PAD4 inhibition: Lineweaver-Burk plots; for Ki: BAEE 0-20 mM, 0.2 μM PAD4
Experimental: PAD4 activity was measured as a function of substrate concentration in the absence and presence of increasing concentrations of each inhibitor.
Briefly, the compounds were incubated in Reaction Buffer containing various concentrations of BAEE (0-20 mM) for 10 minutes at 37° C. PAD4 (0.2 μM) was then added to initiate the reaction and allowed to proceed for 6 additional minutes. Reactions were then quenched by flash freezing in liquid N2 and the amount of Cit produced was quantified.
[formula] using GraFit version 5.0.11.

PAD4 [4] = molecular target: T1, PAD4; test: as above; assay type: biochemical; details: product formation linear with respect to time
[5] = 1 mM BAEE, 0.2 μM PAD4, 15 min pre-incubation at 37° C.

T1 sequence (Q9UM07 whole entry): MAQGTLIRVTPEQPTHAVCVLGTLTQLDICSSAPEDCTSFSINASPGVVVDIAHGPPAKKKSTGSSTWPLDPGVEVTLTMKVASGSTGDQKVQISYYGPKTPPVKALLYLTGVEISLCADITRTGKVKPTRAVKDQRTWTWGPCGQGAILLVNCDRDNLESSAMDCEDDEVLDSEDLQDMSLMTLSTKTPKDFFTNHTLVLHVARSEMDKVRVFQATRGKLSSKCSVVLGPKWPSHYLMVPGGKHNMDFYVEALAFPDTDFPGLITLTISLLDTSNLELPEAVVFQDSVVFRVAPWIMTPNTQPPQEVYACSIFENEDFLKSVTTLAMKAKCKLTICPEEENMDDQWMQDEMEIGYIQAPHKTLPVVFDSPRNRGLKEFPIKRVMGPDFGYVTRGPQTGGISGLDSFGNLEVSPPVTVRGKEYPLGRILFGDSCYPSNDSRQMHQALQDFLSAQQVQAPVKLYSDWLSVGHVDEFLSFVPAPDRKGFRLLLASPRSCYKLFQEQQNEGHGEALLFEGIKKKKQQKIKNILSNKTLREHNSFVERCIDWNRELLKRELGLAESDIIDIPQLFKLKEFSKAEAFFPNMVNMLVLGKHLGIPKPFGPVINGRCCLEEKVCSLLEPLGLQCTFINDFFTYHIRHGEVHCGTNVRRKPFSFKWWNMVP

Row | Compound | IC50 (PAD4 [1]; [5]) [µM] | decrease in fluorescence intensity of PAD4 (PAD4 [2]) | further results
1 | CN(C)[C@H]1C(O)=C(C(N)=O)C(=O)C2(O)C(O)=C3C(=O)c4c(O)ccc(Cl)c4C(C)(O)C3CC12 (stereo partly drawn) [Chlortetracycline] | – | – | kinetic mechanism of PAD4 inhibition (PAD4 [3]): mixed inhibition; also recorded: mixed inhibitors; reversibility of PAD4 inhibition (PAD4 [4]): reversible
2 | CCCC1CC(C(=O)NC(C(C)Cl)C2OC(SC)C(O)C(O)C2O)N(C)C1 (stereo not drawn) [Clindamycin] | – | Intermediate effects | –
3 | [H]/N=C(/N)N[C@H]1[C@H](O)[C@@H](O)[C@H](O[C@@H]2O[C@@H](C)[C@](O)(C=O)[C@H]2O[C@@H]2O[C@@H](CO)[C@H](O)[C@@H](O)[C@@H]2NC)[C@@H](N/C(N)=N\[H])[C@@H]1O [Streptomycin] | – | strong decrease | deimination of the compound by PAD4 (substrate) (PAD4 [1]): not deiminated; kinetic mechanism of PAD4 inhibition (PAD4 [3]): competitive inhibitor; reversibility of PAD4 inhibition (PAD4 [4]): reversible
4 | Nc1ccc(S(=O)(=O)Nc2ccccn2)cc1 [Sulfapyridine] | > 10000 | little to no decrease | –
5 | Azithromycin | > 10000 | little to no decrease | –
6 | Sulfamethox-azole | > 10000 | little to no decrease | –

Continued, in another order:

Row | IC50 (PAD4 [1]; [5]) [µM] | decrease in fluorescence intensity of PAD4 (PAD4 [2]) | Compound | further results
7 | > 10000 | little to no decrease | Nc1ccc(O)c(C(=O)O)c1 [5-Amino-salicylic Acid] | –
8 | > 7500 | – | Cn1cnc([N+](=O)[O-])c1Sc1ncnc2nc[nH]c12 [Azathioprine] | –
9 | > 10000 | Intermediate effects | CN(Cc1cnc2nc(N)nc(N)c2n1)c1ccc(C(=O)N[C@@H](CCC(=O)O)C(=O)O)cc1 [Methotrexate] | –
10 | 620 | strong decrease | CN(C)c1ccc(O)c2c1C[C@H]1C[C@H]3[C@H](N(C)C)C(O)=C(C(N)=O)C(=O)[C@@]3(O)C(O)=C1C2=O [Minocycline] | IC50 (PAD4 [1]; standard assay): 620 µM; Ki (PAD4 [3]; read-out: Kii): 630 ± 150 µM; Ki (PAD4 [3]; read-out: Kis): 180 ± 60 µM; kinetic mechanism of PAD4 inhibition (PAD4 [3]): mixed type inhibitor; also recorded: mixed inhibitors; reversibility of PAD4 inhibition (PAD4 [4]): reversible
11 | 100 ± 10 | – | CN(C)[C@H]1C(O)=C(C(N)=O)C(=O)C2(O)C(O)=C3C(=O)c4c(O)cccc4C(C)(O)C3CC12 (stereo partly drawn) [Tetracycline] | –
12 | 7500 ± 200 | little to no decrease | COc1cc(Cc2cnc(N)nc2N)cc(OC)c1OC [Trimethoprim] | –
13 | 2400 ± 800 | Intermediate effects | Leflunomide | –
